Test results taken from ChEMBL document CHEMBL1201862, “PubChem BioAssay data set” (2004).
Calls of active or inactive are those of the source.

Assays:
[1] = target: Induced myeloid leukemia cell differentiation protein Mcl-1 (Homo sapiens, UniProt Q07820); assay type: functional
[2] = luciferase reporter signal suppression in cells – H4 neuroglioma cells, luminescence, dose response (AID 1990); assay type: functional, cell-based
[3] = Luminescence Cell-Based Dose Response HTS to Identify Inhibitors of 5'UTR Stem-Loop Driven Prion Protein mRNA Translation in H4 Neuroglioblastoma Cells. [Related pubchem assays: 1827 (Project Summary), 1813 (Primary HTS)]; assay type: functional
[4] = alpha-synuclein stem-loop luciferase translation blockers – H4 neuroglioma cells, luminescence, confirmation (AID 1988); assay type: functional, cell-based
Paired box protein Pax-8 = Paired box protein Pax-8 (Homo sapiens, UniProt Q06710); assay: PAX8 transcriptional activity inhibition in RMG-I – RMG-I cells, luciferase, cherry-pick, dose response (AID 687027); assay type: functional, cell-based;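 also: luciferase reporter driven by Pax8 target thyroperoxidase promoter measured by SteadyGlo luminescence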
Paired box protein Pax-8, sequence (Q06710 whole entry): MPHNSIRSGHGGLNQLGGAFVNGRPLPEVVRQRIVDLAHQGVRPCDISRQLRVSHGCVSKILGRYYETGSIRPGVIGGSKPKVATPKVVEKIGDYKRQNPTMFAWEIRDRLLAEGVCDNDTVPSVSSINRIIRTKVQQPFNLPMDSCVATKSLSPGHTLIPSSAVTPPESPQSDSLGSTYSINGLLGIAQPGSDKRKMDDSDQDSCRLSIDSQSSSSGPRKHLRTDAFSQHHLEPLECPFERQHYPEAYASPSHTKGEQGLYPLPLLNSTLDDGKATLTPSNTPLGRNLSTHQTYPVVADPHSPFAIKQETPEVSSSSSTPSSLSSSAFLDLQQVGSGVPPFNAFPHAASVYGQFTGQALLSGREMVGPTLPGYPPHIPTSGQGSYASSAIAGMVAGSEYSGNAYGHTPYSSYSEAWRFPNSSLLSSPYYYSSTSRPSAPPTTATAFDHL

[5] = OVCAR8 cell viability loss – plate reader, dry powder samples, PAX8 project, dose response (AID 743197); assay type: functional, cell-based; details: OVCAR-8
[6] = growth inhibition of yeast DHODH-expressing 3D7 parasites – SYBR Green, dry powder samples, dose response (AID 1159570); assay type: functional, cell-based;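 also: parasite growth measured after 72 hours of compound exposure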
[7] = P. falciparum Dd2 growth inhibitors, dose response, SYBR Green, cherry-picked samples (AID 1159567); assay type: functional, cell-based
[8] = Dd2 malaria parasite growth inhibition potency – SYBR Green, dry powder samples, dose response (AID 1159566); assay type: functional, cell-based;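 also: potency for growth inhibition with lower SYBR green DNA signal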
[9] = growth inhibition of PfATP4-mutant resistant parasites – NITD609-resistant line, SYBR Green, dry powder, dose response (AID 1159571); assay type: functional, cell-based;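 also: parasites synchronized at ring stage by sorbitol before testing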
[10] = target: T1, Carboxy-terminal domain RNA polymerase II polypeptide A small phosphatase 1 (Homo sapiens, UniProt Q9GZU7); assay: CTDSP1 inhibitors, concentration-response, biochemical, absorbance readout, ultra-high-throughput screen actives (AID 540297); assay type: functional
T1 sequence (Q9GZU7 whole entry): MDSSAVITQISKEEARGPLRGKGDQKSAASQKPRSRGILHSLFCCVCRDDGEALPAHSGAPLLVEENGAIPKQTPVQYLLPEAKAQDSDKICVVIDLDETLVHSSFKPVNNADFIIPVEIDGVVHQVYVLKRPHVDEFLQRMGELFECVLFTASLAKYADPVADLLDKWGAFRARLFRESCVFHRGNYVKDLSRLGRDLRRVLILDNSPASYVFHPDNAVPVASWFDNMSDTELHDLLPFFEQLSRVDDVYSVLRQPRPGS

[11] = NIH-3T3 fibroblast cytotoxicity, dose response, cytotoxicity control, cell-based, fluorescence, Alamar Blue, secondary assay (AID 2327); assay type: functional;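 also: NIH-3T3 mouse fibroblasts cultured with fluconazole at 8 µg/mL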
[12] = fluconazole-exposed Candida albicans growth modulators – fluorescence, retest, confirmation (AID 2467); assay type: functional, cell-based
[13] = Luminescence Cell-Based Dose Confirmation HTS to Identify Activators of 5'UTR Stem-Loop Driven Alpha-Synuclein mRNA Translation in H4 Neuroglioblastoma Cells. [Related pubchem assays: 1829 (Project Summary), 1814 (Primary HTS)]; assay type: functional
[14] = Luminescence Cell-Based Dose Response HTS to Identify Activators of Luciferase Translation or Activity in H4 […] Cells. [Related pubchem assays: 1829 (Project Summary), 1814 (Primary HTS)]; assay type: functional
H4 = assay: Luminescence Cell-Based Dose Response HTS to Identify Activators of 5'UTR Stem-Loop Driven Prion Protein mRNA Translation in H4 Neuroglioblastoma Cells. [Related pubchem assays: 1829 (Project Summary), 1814 (Primary HTS)]; assay type: functional; details: Homo sapiens
[15] = blockers of HIV-1 envelope-mediated cell-cell fusion – cherry-pick, dose response (AID 652057); assay type: functional, cell-based
[16] = reduction of Shn3 3'UTR-driven luciferase in osteoblasts – cell-based, Clone20 osteoblasts, firefly luciferase, cherry-picked, dose response (AID 624132); assay type: functional;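 also: firefly luciferase luminescence from reporter carrying the Shn3 3'UTR in osteoblasts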
[17] = loss of viability in HepG2 cells – cell-based, CellTiter-Glo, cherry-picked, cytotoxicity control for Shn3 inhibitor project, dose response (AID 624134); assay type: functional
[18] = non-specific 3'UTR reporter inhibition in Clone20-Shn3RL – cell-based, Renilla luciferase, cherry-picked, counter-screen for Shn3 inhibitor project, dose response (AID 624133); assay type: functional
[19] = blockers of HIV-1 ZM109 envelope-driven cell-cell fusion – HeLa effector, CEM target cells, luciferase, cherry-pick, dose response (AID 652058); assay type: functional, cell-based;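 also: luciferase signal from HIV-1 Env mediated cell-cell fusion of effector and target cells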
[20] = HIV-1 AD8 envelope cell-cell fusion blockers – cherry-pick, dose response (AID 652062); assay type: functional, cell-based;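 also: luciferase signal from cell-cell fusion driven by HIV-1 clade B AD8 Env; potency is for inhibitors of fusion seen as a drop in luminescence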

Induced myeloid leukemia cell differentiation protein Mcl-1, sequence (Q07820 whole entry): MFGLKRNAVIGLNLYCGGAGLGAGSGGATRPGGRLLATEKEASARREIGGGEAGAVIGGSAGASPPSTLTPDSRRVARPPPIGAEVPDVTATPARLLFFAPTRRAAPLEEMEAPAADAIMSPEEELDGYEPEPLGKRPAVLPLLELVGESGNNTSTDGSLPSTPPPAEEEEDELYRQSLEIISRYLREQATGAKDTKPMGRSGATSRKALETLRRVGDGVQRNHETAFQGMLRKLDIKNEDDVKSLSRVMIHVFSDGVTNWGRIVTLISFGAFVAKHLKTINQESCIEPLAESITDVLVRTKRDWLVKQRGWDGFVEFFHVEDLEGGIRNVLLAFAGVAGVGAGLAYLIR

## Cc1cccc(OCCCC(=O)Nc2ccc(N(C)C)cc2)c1
[1]
  IC50: < 0.4 µM (active)

## Cc1cc(C)n(CC(C)NC(=O)c2cc(COc3c(F)cccc3F)on2)n1 (centres undefined)
[2]
  EC50: > 120 µM (not active)
[3]
  EC50: > 120 µM (not active)
[4]
  EC50: > 120 µM (not active)

## C[C@@H]1CN([C@@H](C)CO)C(=O)c2cc(NC(=O)Nc3ccc(C(F)(F)F)cc3)ccc2O[C@@H](C)CCCCO[C@@H]1CN(C)Cc1ccccc1
Paired box protein Pax-8
  AC50: 9.49 µM (active)
[5]
  AC50: > 60 µM (inactive)

## CC(C)(C)[S@@+]([O-])N1Cc2cc(C(=O)N[C@@H]3CCN(Cc4ccccc4)C3)nc(-c3cccc(-c4cccnc4)c3)c2[C@H]1CCO
[6]
  AC50: 3.42 µM (active)
[7]
  AC50: 1.94 µM (active)
[8]
  AC50: 2.01 µM (active)
[9]
  AC50: 2.58 µM (active)

## CC1CCN(c2ccc(S(=O)(=O)Nc3cc(C(=O)O)cc(C(=O)O)c3)cc2[N+](=O)[O-])CC1
[10]
  IC50: 9.99 µM (active)

## CC1CCN(C(c2ccc(N(C)C)cc2)c2nnnn2C(C)(C)C)CC1 (centres undefined)
[1]
  IC50: > 54 µM (active)

## Nc1ccc(Sc2ccc([N+](=O)[O-])cc2)cc1
[11]
  EC50: > 160 µM (inactive)
[12]
  EC50: > 38 µM (not active)

## CN1C(=O)/C(=C2/C(=O)Nc3ccccc32)S/C1=N\c1ccc(Cl)cc1
[13]
  EC50: 12.7 µM (active)
[14]
  EC50: 46.1 µM (active)
H4
  EC50: 32.3 µM (active)

## COc1cccc2sc(NNC(=O)c3nc4ccccc4s3)nc12
[2]
  EC50: > 120 µM (not active)
[3]
  EC50: 16.5 µM (active)
[4]
  EC50: > 120 µM (not active)

## COc1cccc(S(=O)(=O)N(C)C[C@H]2Oc3cc(C4=CCCC4)ccc3S(=O)(=O)N([C@H](C)CO)C[C@@H]2C)c1
[15]
  AC50: 34.2 µM (active)

## CCN(CC)CCN(C(=O)c1cc2c(ccc3ccccc32)oc1=O)c1nc2cc3c(cc2s1)OCCO3
[2]
  EC50: > 120 µM (not active)
[3]
  EC50: > 120 µM (inconclusive)
[4]
  EC50: 9.65 µM (active)

## CC(=O)Nc1ccc(N2CC(C)(C)C2=O)cc1
[11]
  EC50: 38.4 µM (active)
[12]
  EC50: > 38 µM (not active)

## Cn1nc(-c2ccc(OCC(=O)N3CCN(Cc4ccccc4)CC3)cc2)c2ccccc2c1=O
[16]
  AC50: 2.1 µM (active)
[17]
  AC50: 32.4 µM (active)
[18]
  AC50: 4.74 µM (active)
[19]
  AC50: 27.4 µM (active)
[20]
  AC50: 23.5 µM (active)

## Nc1nc(Nc2ccccc2)nc(NCc2ccccc2)c1[N+](=O)[O-]
[2]
  EC50: 17 µM (active)
[3]
  EC50: > 120 µM (not active)
[4]
  EC50: 44.7 µM (active)

## Cc1sc2c(c1C)CN(Cc1ccncc1)CN2C(=O)c1ccco1
[13]
  EC50: > 120 µM (not active)
[14]
  EC50: 11 µM (active)
H4
  EC50: > 60 µM (not active)

## N#Cc1ccc(OCC(=O)Nc2cccc(S(=O)(=O)NC3=NCCCCC3)c2)cc1
[10]
  IC50: 11.6 µM (active)

## COc1ccc(NC(=O)N2CC3(C2)CN(C(=O)C2CCC2)[C@H](CO)c2c3c3ccc(OC)cc3n2C)cc1
[6]
  AC50: 0.22 µM (active)
[7]
  AC50: 2.21 µM (active)
[8]
  AC50: 0.437 µM (active)
[9]
  AC50: 0.372 µM (active)

## CN1c2ccc(C#Cc3cccnc3)cc2[C@H]2[C@H](CCN2S(=O)(=O)c2ccc(F)cc2)[C@H]1CO
[6]
  AC50: 1.33 µM (active)
[7]
  AC50: 1.7 µM (active)
[8]
  AC50: 1.05 µM (active)
[9]
  AC50: 1.16 µM (active)

## Cc1ccc(Oc2cnn(-c3ccccc3)c(=O)c2Br)cc1
[13]
  EC50: > 120 µM (not active)
[14]
  EC50: 27 µM (active)
H4
  EC50: 30.7 µM (active)
